From patent US20230357233A1, “HETEROARYL COMPOUNDS, PREPARATION METHODS AND USES THEREOF” (INVENTISBIO CO., LTD., priority 2020, published 2023)

Experiments:
[1] = target: Ba/F3_KRAS^G12D cells (Homo sapiens, UniProt P01116, G12D, cells depend on it); test: Ba/F3 KRAS^G12D cell proliferation assay (cell-titer Glo); type: cell-based; conditions: cell growth inhibition, treated with the compounds for 3 days, read-out: BaF3_KRAS^G12D IC50
Method: Cells were seeded at a density of 5×10^3 per well into 96-well plate and incubated overnight. Serial diluted compounds were added to each well. Cells were treated with the compounds for 3 days, after which cell-titer Glo reagent (Promega #G7572) was used to assess cell proliferation. The luminescence signal was then collected on Tecan Spark plate reader. […] Cell growth inhibition of IC50 is calculated with the equation of Y=Bottom+(Top−Bottom)/(1+10^((LogIC50−X)*HillSlope))

[2] = target: recombinant human KRAS^G12D protein (Homo sapiens, UniProt P01116, G12D); test: Temperature-dependent Fluorescence (TdF) KRAS^G12D protein binding assay; conditions: 6 μM KRAS^G12D Protein, 10 μM compound, Sypro Orange; Kd calculated from fluorescent shift
Sequence of recombinant human KRAS^G12D protein (P01116 1-188 isoform P01116-2 G12D): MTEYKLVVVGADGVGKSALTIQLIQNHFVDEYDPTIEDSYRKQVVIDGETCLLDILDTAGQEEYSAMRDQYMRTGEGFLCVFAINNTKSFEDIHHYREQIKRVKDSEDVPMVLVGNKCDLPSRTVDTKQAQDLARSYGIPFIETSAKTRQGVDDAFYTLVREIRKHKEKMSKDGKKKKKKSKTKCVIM
Method: The TdF assay was conducted in the 96-well-based real-time fluorescence plate reader (ABI 7500 or Roche LightCycler 480). Fluorescent dye Sypro Orange (Sigma) was used to monitor the protein folding-unfolding transition. Protein-compound binding was gauged by the shift in the unfolding transition temperature (ΔTm) acquired with and without compound. […] The sample plate was heated from 30° C. to 95° C. with a thermal ramping rate of […], taking a fluorescence reading every 0.4° C. using a CY3 channel matching the excitation and emission wavelengths of Sypro Orange (λ ex 470 nm; λ em 570 nm). Binding affinity (Kd value) was calculated based on the degree of fluorescent shift of the protein with and without compound.

Sequence of Ba/F3_KRAS^G12D cells (P01116 whole entry G12D): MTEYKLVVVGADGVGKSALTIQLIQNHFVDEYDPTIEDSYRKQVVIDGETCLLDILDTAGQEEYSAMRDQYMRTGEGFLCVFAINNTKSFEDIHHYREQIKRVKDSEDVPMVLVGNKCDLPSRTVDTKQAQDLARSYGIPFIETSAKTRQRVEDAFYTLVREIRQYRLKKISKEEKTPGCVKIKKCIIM

Structure (SMILES): Cc1nc(-c2ccc(F)c3sc(N)nc23)c(F)c2nc(OC[C@@]34CCCN3C[C@H](F)C4)nc(N3CC4CCC(C3)N4)c12 [Compound 87]
- GI50 [1]: > 5 µM
- Kd [2]: 0.5 to 5 µM

Structure (SMILES): Oc1cc(-c2ncc3c(N4C5CCC4CNC5)nc(OC[C@@]45CCCN4C[C@H](F)C5)nc3c2F)c2c(Cl)cccc2c1 [Compound 70]
- GI50 [1]: < 0.5 µM
- Kd [2]: ≤ 0.5 µM

Structure (SMILES): CCc1cccc2cc(O)cc(-c3nc(OC)c4c(N5CC6CCC(C5)N6)nc(OC[C@@]56CCCN5C[C@H](F)C6)nc4c3F)c12 [Compound 125]
- GI50 [1]: < 0.5 µM
- Kd [2]: ≤ 0.5 µM

Structure (SMILES): CN(C)CCCOc1cc2nc(-c3cccc4ccccc34)ncc2c(N2CC3CCC(C2)N3)n1 [Compound 23]
- GI50 [1]: 0.5 to 5 µM
- Kd [2]: > 5 µM

Structure (SMILES): Oc1cc(-c2nc(Cl)c3c(N4CC5CCC(C4)N5)nc(OC[C@@]45CCCN4C[C@H](F)C5)nc3c2F)c2c(Cl)cccc2c1 [Compound 114]
- GI50 [1]: < 0.5 µM
- Kd [2]: ≤ 0.5 µM

Structure (SMILES): Cc1cc(N)nc(-c2nc(C)c3c(N4CC5CCC(C4)N5)nc(OC[C@@]45CCCN4C[C@H](F)C5)nc3c2F)c1C(F)(F)F [Compound 105]
- GI50 [1]: > 5 µM
- Kd [2]: 0.5 to 5 µM

Structure (SMILES): CN(C)CCCOc1nc(N2CC3CCC(C2)N3)c2cc(F)c(-c3cccc4cccc(Cl)c34)nc2n1 [Compound 15]
- GI50 [1]: > 5 µM
- Kd [2]: > 5 µM

Structure (SMILES): Clc1cccc2cccc(-c3nc(OCC45CCCN4CCC5)c4ccc(N5CCNCC5)nc4c3Br)c12 [Compound 83]
- GI50 [1]: 0.5 to 5 µM
- Kd [2]: > 5 µM

Structure (SMILES): N#Cc1c(-c2cccc3cccc(Cl)c23)nc(OCC23CCCN2CCC3)c2ccc(N3CCNCC3)nc12 [Compound 98]
- GI50 [1]: 0.5 to 5 µM
- Kd [2]: > 5 µM

Structure (SMILES): CCc1cccc2cc(O)cc(-c3nc(Cl)c4c(N5CC6CCC(C5)N6)nc(OC[C@@]56CCCN5C[C@H](F)C6)nc4c3F)c12 [Compound 113]
- GI50 [1]: < 0.5 µM
- Kd [2]: ≤ 0.5 µM

Structure (SMILES): Oc1cc(-c2ncc3c(N4CC5CCC(C4)N5)nc(OCC45CCCN4CCC5)nc3c2F)c2c(Cl)cccc2c1 [Compound 32]
- GI50 [1]: < 0.5 µM
- Kd [2]: ≤ 0.5 µM

Structure (SMILES): C#Cc1c(F)ccc2cc(O)cc(-c3cc4nc(OC[C@@]56CCCN5C[C@H](F)C6)nc(N5CC6CCC(C5)N6)c4c(C)n3)c12 [Compound 131]
- GI50 [1]: < 0.5 µM
- Kd [2]: ≤ 0.5 µM

Structure (SMILES): CCN1CCN(c2nc(OCC34CCCN3CCC4)nc3c(F)c(-c4cc(O)cc5cccc(Cl)c45)ncc23)CC1 [Compound 42]
- GI50 [1]: 0.5 to 5 µM
- Kd [2]: > 5 µM

Structure (SMILES): CN1CCC[C@H]1Cn1c(=O)nc(N2CC3CCC(C2)N3)c2cnc(-c3cc(O)cc4ccccc34)c(F)c21 [Compound 40]
- GI50 [1]: > 5 µM
- Kd [2]: > 5 µM

Structure (SMILES): CCc1cccc2c(F)c(O)cc(-c3nc(C)c4c(N5CC6CCC(C5)N6)nc(OC[C@@]56CCCN5C[C@H](F)C6)nc4c3F)c12 [Compound 124]
- GI50 [1]: < 0.5 µM
- Kd [2]: ≤ 0.5 µM

Structure (SMILES): Oc1cc(-c2nc3cc(OC[C@@]45CCCN4C[C@H](F)C5)nc(N4CC5CCC(C4)N5)c3cc2Cl)c2c(Cl)cccc2c1 [Compound 43]
- GI50 [1]: 0.5 to 5 µM
- Kd [2]: > 5 µM

Structure (SMILES): Fc1cc2c(N3C4CCC3CNC4)nc(OCC34CCCN3CCC4)nc2nc1-c1cccc2cccc(Cl)c12 [Compound 9]
- GI50 [1]: > 5 µM
- Kd [2]: > 5 µM

Structure (SMILES): c1ccc2c(-c3ncc4c(N5CC6CCC(C5)N6)nc(OCC56CCCN5CCC6)cc4n3)cccc2c1 [Compound 21]
- GI50 [1]: 0.5 to 5 µM
- Kd [2]: > 5 µM

Structure (SMILES): Clc1cccc2cccc(-c3cc4nc(N5CCNCC5)ccc4c(OCC45CCCN4CCC5)n3)c12 [Compound 82]
- GI50 [1]: < 0.5 µM
- Kd [2]: > 5 µM

Structure (SMILES): CCc1c(F)ccc2cc(O)cc(-c3nc(OC)c4c(N5CC6CCC(C5)N6)nc(OC[C@@]56CCCN5C[C@H](F)C6)nc4c3F)c12 [Compound 139]
- GI50 [1]: < 0.5 µM
- Kd [2]: ≤ 0.5 µM

Structure (SMILES): C#Cc1c(F)ccc2cc(O)cc(-c3nc(Cl)c4c(N5CC6CCC(C5)N6)nc(OC[C@@H]5CCCN5C)nc4c3F)c12 [Compound 159]
- GI50 [1]: < 0.5 µM
- Kd [2]: ≤ 0.5 µM

Structure (SMILES): Cc1cc2c(N3CC4CCC(C3)N4)nc(OCC34CCCN3CCC4)nc2c(=O)n1-c1cccc2ccccc12 [Compound 107]
- GI50 [1]: 0.5 to 5 µM
- Kd [2]: > 5 µM

Structure (SMILES): CN(C)CCCn1c(=O)nc(N2CC3CCC(C2)N3)c2cc(F)c(-c3cccc4cccc(Cl)c34)nc21 [Compound 19]
- GI50 [1]: > 5 µM
- Kd [2]: > 5 µM

Structure (SMILES): C[C@H]1CNCCN1c1nc(OCCN(C)C)c(-c2cccnc2C2CC2)c2nc(-c3cccc4ccccc34)c(F)cc12 [Compound 29]
- GI50 [1]: 0.5 to 5 µM
- Kd [2]: > 5 µM

Structure (SMILES): CN(C)CCCOc1nc(N2CC3CCC(C2)N3)c2cnc(-c3cccc4ccccc34)nc2c1Cl [Compound 25]
- GI50 [1]: 0.5 to 5 µM
- Kd [2]: > 5 µM
